Results from the supplement of paper PMC9663587.

What was measured:
[1] = compound: CCCCOc1c(C(=O)c2c(F)cc(C)cc2F)c[nH]c2nncc1-2
TGX221 = compound: CC1=CN2C(=O)C=C(N=C2C(=C1)C(C)NC3=CC=CC=C3)N4CCOCC4 [TGX221]
[2] = compound: CC(=O)c1c(C)c2cnc(Nc3ccc(N4CCNCC4)cn3)nc2n(C2CCCC2)c1=O
[3] = compound: COc1ccc2c(c1)[C@]1(C[C@H]1c1ccc3c(/C=C/c4ccc(CN5C[C@@H](C)O[C@@H](C)C5)cc4)n[nH]c3c1)C(=O)N2
THZ531 = compound: CN(C)C/C=C/C(=O)Nc1ccc(C(=O)N2CCC[C@@H](Nc3ncc(Cl)c(-c4c[nH]c5ccccc45)n3)C2)cc1 [THZ531]
Olaparib/AZD2281 = compound: O=C(c1cc(Cc2n[nH]c(=O)c3ccccc23)ccc1F)N1CCN(C(=O)C2CC2)CC1 [Olaparib/AZD2281]
ABT-737 = compound: CN(C)CC[C@H](CSc1ccccc1)Nc1ccc(S(=O)(=O)NC(=O)c2ccc(N3CCN(Cc4ccccc4-c4ccc(Cl)cc4)CC3)cc2)cc1[N+](=O)[O-] [ABT-737]
Dasatinib = compound: Cc1nc(Nc2ncc(C(=O)Nc3c(C)cccc3Cl)s2)cc(N2CCN(CCO)CC2)n1 [Dasatinib]
THZ1 = compound: CN(C)C/C=C/C(=O)Nc1ccc(C(=O)Nc2cccc(Nc3ncc(Cl)c(-c4c[nH]c5ccccc45)n3)c2)cc1 [THZ1]
Ipatasertib/GDC0068 = compound: CC(C)NC[C@@H](C(=O)N1CCN(c2ncnc3c2[C@H](C)C[C@H]3O)CC1)c1ccc(Cl)cc1 [Ipatasertib/GDC0068]
[4] = compound: CNc1nc(-c2ccc3c(N)n[nH]c3c2)cc(N2C[C@@H](C(=O)NC3CCCCC3)CC[C@H]2C)n1
AZD7762 = compound: NC(=O)Nc1cc(-c2cccc(F)c2)sc1C(=O)N[C@H]1CCCNC1 [AZD7762]
Taselisib/GDC0032 = compound: Cc1nc(-c2cn3c(n2)-c2ccc(-c4cnn(C(C)(C)C(N)=O)c4)cc2OCC3)n(C(C)C)n1 [Taselisib/GDC0032]
AZD1775 = compound: C=CCn1c(=O)c2cnc(Nc3ccc(N4CCN(C)CC4)cc3)nc2n1-c1cccc(C(C)(C)O)n1 [AZD1775]
BSJ-01-175 = compound: CN(C)C/C=C/C(=O)Nc1ccc(O[C@@H]2CCC[C@@H](Nc3ncc(Cl)c(-c4c[nH]c5ccccc45)n3)C2)cc1 [BSJ-01-175]
Torin2 = compound: C1=CC(=CC(=C1)N2C(=O)C=CC3=CN=C4C=CC(=CC4=C32)C5=CN=C(C=C5)N)C(F)(F)F [Torin2]
Vorinostat = compound: O=C(CCCCCCC(=O)Nc1ccccc1)NO [Vorinostat]
AZD6738 = compound: C[C@@H]1COCCN1c1cc(C2([S@](C)(=N)=O)CC2)nc(-c2cc[nH]c3nccc2-3)n1 [AZD6738]
[5] = compound: CC(=O)Nc1cccc(-n2c(=O)n(C3CC3)c(=O)c3c(Nc4ccc(I)cc4F)n(C)c(=O)c(C)c32)c1
Cabozantinib = compound: COc1cc2nccc(Oc3ccc(NC(=O)C4(C(=O)Nc5ccc(F)cc5)CC4)cc3)c2cc1OC [Cabozantinib]
[6] = compound: CCN1CCN(Cc2ccc(Nc3ncc(F)c(-c4cc(F)c5nc(C)n(C(C)C)c5c4)n3)nc2)CC1
Tivantinib/ARQ197 = compound: O=C1NC(=O)[C@@H](c2cn3c4c(cccc24)CCC3)[C@@H]1c1c[nH]c2ccccc12 [Tivantinib/ARQ197]
THZ-P1-2 = compound: CN(C)C/C=C/C(=O)NC1=CC=C(C=C1)C(=O)NC2=CC=CC(=C2)NC3=NC=NC(=C3)C4=CNC5=CC=CC=C54 [THZ-P1-2]
Buparlisib/NVP-BKM120 = compound: Nc1cc(C(F)(F)F)c(-c2cc(N3CCOCC3)nc(N3CCOCC3)n2)cn1 [Buparlisib/NVP-BKM120]
INK128/MLN0128 = compound: CC(C)n1nc(-c2ccc3oc(N)nc3c2)c2c(N)ncnc21 [INK128/MLN0128]
Alpelisib/BYL719 = compound: Cc1nc(NC(=O)N2CCC[C@H]2C(N)=O)sc1-c1ccnc(C(C)(C)C(F)(F)F)c1 [Alpelisib/BYL719]
SHP099 = compound: CC1(CCN(CC1)C2=CN=C(C(=N2)N)C3=C(C(=CC=C3)Cl)Cl)N [SHP099]
Volasertib/BI6727 = compound: CC[C@@H]1C(=O)N(C)c2cnc(Nc3ccc(C(=O)N[C@H]4CC[C@H](N5CCN(CC6CC6)CC5)CC4)cc3OC)nc2N1C(C)C [Volasertib/BI6727]
senexin b = compound: CN1CCN(C(=O)c2ccc3cc(CCNc4ncnc5ccc(C#N)cc45)ccc3c2)CC1 [senexin b]
Rucaparib = compound: CNCc1ccc(-c2[nH]c3cc(F)cc4c3c2CCNC4=O)cc1 [Rucaparib]
Saracatinib/AZD0530 = compound: CN1CCN(CCOc2cc(OC3CCOCC3)c3c(Nc4c(Cl)ccc5c4OCO5)ncnc3c2)CC1 [Saracatinib/AZD0530]
Luminespib/NVP-AUY922 = compound: CCNC(=O)c1noc(-c2cc(C(C)C)c(O)cc2O)c1-c1ccc(CN2CCOCC2)cc1 [Luminespib/NVP-AUY922]
Cediranib/AZD2171 = compound: COc1cc2c(Oc3ccc4[nH]c(C)cc4c3F)ncnc2cc1OCCCN1CCCC1 [Cediranib/AZD2171]
AZD2014 = compound: CNC(=O)c1cccc(-c2ccc3c(N4CCOC[C@@H]4C)nc(N4CCOC[C@@H]4C)nc3n2)c1 [AZD2014]
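Further: breast cancer and non-malignant breast epithelial cell lines, Deep Dye Drop or Dye Drop imaging, nine half-log doses, GR normalized to time-zero plates and DMSO-only controls.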

Cell Line | GR50, 72 h [1] [µM] | GR50, 72 h (TGX221) [µM] | GR50, 72 h [2] [µM] | GR50, 72 h [3] [µM] | GR50, 72 h (THZ531) [µM] | GR50, 72 h (Olaparib/AZD2281) [µM] | GR50, 72 h (ABT-737) [µM] | GR50, 72 h (Dasatinib) [µM] | GR50, 72 h (THZ1) [µM] | GR50, 72 h (Ipatasertib/GDC0068) [µM] | GR50, 72 h [4] [µM] | GR50, 72 h (AZD7762) [µM] | GR50, 72 h (Taselisib/GDC0032) [µM] | GR50, 72 h (AZD1775) [µM] | GR50, 72 h (BSJ-01-175) [µM] | GR50, 72 h (Torin2) [µM] | GR50, 72 h (Vorinostat) [µM] | GR50, 72 h (AZD6738) [µM] | GR50, 72 h [5] [µM] | GR50, 72 h (Cabozantinib) [µM] | GR50, 72 h [6] [µM] | GR50, 72 h (Tivantinib/ARQ197) [µM] | GR50, 72 h (THZ-P1-2) [µM] | GR50, 72 h (Buparlisib/NVP-BKM120) [µM] | GR50, 72 h (INK128/MLN0128) [µM] | GR50, 72 h (Alpelisib/BYL719) [µM] | GR50, 72 h (SHP099) [µM] | GR50, 72 h (Volasertib/BI6727) [µM] | GR50, 72 h (senexin b) [µM] | GR50, 72 h (Rucaparib) [µM] | GR50, 72 h (Saracatinib/AZD0530) [µM] | GR50, 72 h (Luminespib/NVP-AUY922) [µM] | GR50, 72 h (Cediranib/AZD2171) [µM] | GR50, 72 h (AZD2014) [µM]
MDAMB231 | 1.16 | > 10 | 0.109 | 0.00366 | 0.245 | > 10 | 3.03 | 0.0294 | 0.0662 | > 10 | > 10 | 0.163 | 2.2 | 0.0633 | 0.0118 | 0.0251 | 1.24 | 8.89 | 0.00263 | 4.83 | 0.0468 | 0.416 | 4.94 | 1.51 | 0.0218 | > 10 | > 10 | 0.00436 | > 10 | > 10 | 2.33 | 0.0058 | 5.1 | 0.583
MCF7 | 0.00767 | > 10 | 0.075 | 0.00197 | 0.061 | > 10 | > 10 | 0.0694 | 0.0224 | 1.3 | 3.23 | 0.0414 | 0.00836 | 0.0111 | 0.006 | 0.00456 | 0.542 | 3.05 | > 1 | 4.82 | 0.0236 | 0.151 | 3.65 | 0.187 | 0.00298 | 0.585 | > 10 | 0.00287 | > 10 | > 10 | 0.577 | 0.00871 | 5.7 | < 0.001
HCC70 | 0.00336 | 0.0912 | > 3.16 | 0.00349 | 0.0623 | > 10 | 2.78 | 0.00964 | 0.0148 | 0.14 | 1.27 | 0.0412 | 0.161 | < 0.001 | 0.0192 | 0.00585 | 0.413 | 1.84 | 0.0019 | 1.54 | 1.9 | 0.335 | 3.18 | 0.437 | 0.0048 | 4.51 | > 10 | 0.0066 | > 10 | > 10 | 0.0644 | 0.00765 | 4.54 | < 0.001
SKBR3 | 0.0869 | > 10 | 0.176 | 0.00188 | 0.0273 | > 10 | > 10 | 3.65 | 0.014 | 3.32 | 2.11 | 0.0203 | 0.00617 | 0.206 | 0.00832 | 0.00361 | 0.767 | 0.845 | > 1 | 9.69 | 0.0353 | 0.273 | 4.25 | 0.14 | 0.00265 | 0.485 | > 10 | 0.00545 | > 10 | > 10 | 4.92 | 0.00228 | 6.2 | < 0.001
EFM19 | 0.119 | > 10 | 0.525 | 0.0156 | 0.466 | > 10 | 8.35 | 0.0184 | 0.383 | 1.45 | 2.18 | 1.48 | 0.00333 | 3.9 | 1.51 | 0.0114 | 2.66 | > 10 | > 1 | > 10 | 0.025 | 0.658 | 6.33 | 0.706 | 0.00896 | 0.282 | > 10 | 0.0101 | > 10 | > 10 | 3.5 | 0.021 | > 10 | 0.00131
HCC1395 | 0.00575 | 8.42 | 0.0952 | 0.00377 | 0.0785 | 1.87 | > 10 | 0.0748 | 0.022 | 0.926 | > 10 | 0.0217 | 2.14 | 0.00604 | 0.015 | 0.0146 | 3.27 | 1.81 | 0.172 | 5.55 | 0.112 | 0.481 | 2.89 | 0.93 | 0.0108 | > 10 | > 10 | 0.00321 | 5.9 | 0.957 | 3.76 | 0.005 | 1.59 | 0.0101
